According to ChEMBL document CHEMBL5331053, “Defining the structure-activity relationship for a novel class of allosteric MKP5 inhibitors” (Eur J Med Chem, 2022):

What was measured:
[1] = target: T1, Dual specificity protein phosphatase 10 (Homo sapiens, UniProt Q9Y6W6); assay: Inhibition of MKP5 catalytic domain (unknown origin) expressed in Escherichia coli BL21 (DE3) cells assessed as p38alpha MAPK phosphopeptide dephosphorylation using phosphopeptide as substrate incubated for 15 mins followed by substrate addition by malachite green dye based analysis
T1 sequence (Q9Y6W6 whole entry): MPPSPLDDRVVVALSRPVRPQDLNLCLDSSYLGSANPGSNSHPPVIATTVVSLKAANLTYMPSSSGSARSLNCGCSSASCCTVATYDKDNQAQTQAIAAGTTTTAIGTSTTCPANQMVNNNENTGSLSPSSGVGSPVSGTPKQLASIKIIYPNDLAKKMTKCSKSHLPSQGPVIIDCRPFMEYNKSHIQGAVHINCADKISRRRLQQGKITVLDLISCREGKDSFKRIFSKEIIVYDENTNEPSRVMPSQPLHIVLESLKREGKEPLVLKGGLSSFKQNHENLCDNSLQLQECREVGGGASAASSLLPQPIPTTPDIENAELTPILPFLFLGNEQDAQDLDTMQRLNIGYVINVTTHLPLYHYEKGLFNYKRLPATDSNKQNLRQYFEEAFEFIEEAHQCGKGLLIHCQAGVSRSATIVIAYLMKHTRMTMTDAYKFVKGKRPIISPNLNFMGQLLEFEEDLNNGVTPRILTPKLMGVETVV

[2] = target: T1, Dual specificity protein phosphatase 10; assay: Inhibition of human MKP5 catalytic domain (320 to 467 residues) expressed in Escherichia coli BL21 (DE3) cells by MST assay

Row | Structure (SMILES) | IC50 [1] | IC50 [2]
1 | Cc1ccc2c(c1)-c1nc(SCC(=O)C(C)(C)C)ncc1CC2 | 7.5 µM | –
2 | CC(C)(C)C(=O)CSc1ncc2c(n1)-c1cc(Cl)ccc1CC2 | 4 µM | –
3 | CC(C)(C)C(=O)CSc1nccc(-c2cccnc2)n1 | 100 µM | –
4 | CC(=O)N1Cc2cnc(SCC(=O)C(C)(C)C)nc2-c2ccccc21 | 150 µM | –
5 | CSc1scc2c1-c1nc(SCC(=O)C(C)(C)C)ncc1CC2 | 2.8 µM | 3.8 µM
6 | CC(C)(C)C(=O)CSc1ncc2c(n1)-c1ccsc1CC2 | 7.1 µM | –
7 | CCc1csc2c1-c1nc(SCC(=O)C(C)(C)C)ncc1CC2 | 5 µM | –

More lines, in order of falling IC50 [1], values ahead:

Row | IC50 [1] | Structure (SMILES) | IC50 [2]
8 | 81 µM | CCN(C)C(=O)CSc1ncc2c(n1)-c1c(csc1SC)CC2 | –
9 | 76 µM | CC(C)(C)C(=O)CSc1ncc2c(n1)-c1cccnc1CC2 | –
10 | 59 µM | CC(C)(C)C(=O)CSc1ncc2cnc3ccccc3c2n1 | –
11 | 27 µM | CC(C)(C)C(=O)CSc1nccc(-c2ccccc2)n1 | –
12 | 11 µM | CCCc1csc2c1-c1nc(SCC(=O)C(C)(C)C)ncc1CC2 | –
13 | 6.2 µM | CC(C)(C)C(=O)CSc1ncc2c(n1)-c1ccccc1CC2 | –
